Measurements taken from paper PMC6445163, “Design, synthesis, and evaluation of novel 2-phenylpropionic acid derivatives as dual COX inhibitory-antibacterial agents” (Journal of Enzyme Inhibition and Medicinal Chemistry, 2017).
In brackets after ≈: the same amount, converted by molar mass.

Tests used:
COX-1 = target: T1, COX-1 (Ovis aries, UniProt P05979); test: fluorometric COX-1 inhibitor screening kit assay; type: biochemical; conditions: for SI (selectivity index): IC50 (COX-1)/IC50 (COX-2); for IC50: fluorometric kit, 25 °C; for Selectivity: isoform preferred according to SI
T1 construct: purchased Biovision K548-100
T1 sequence (P05979 25-600): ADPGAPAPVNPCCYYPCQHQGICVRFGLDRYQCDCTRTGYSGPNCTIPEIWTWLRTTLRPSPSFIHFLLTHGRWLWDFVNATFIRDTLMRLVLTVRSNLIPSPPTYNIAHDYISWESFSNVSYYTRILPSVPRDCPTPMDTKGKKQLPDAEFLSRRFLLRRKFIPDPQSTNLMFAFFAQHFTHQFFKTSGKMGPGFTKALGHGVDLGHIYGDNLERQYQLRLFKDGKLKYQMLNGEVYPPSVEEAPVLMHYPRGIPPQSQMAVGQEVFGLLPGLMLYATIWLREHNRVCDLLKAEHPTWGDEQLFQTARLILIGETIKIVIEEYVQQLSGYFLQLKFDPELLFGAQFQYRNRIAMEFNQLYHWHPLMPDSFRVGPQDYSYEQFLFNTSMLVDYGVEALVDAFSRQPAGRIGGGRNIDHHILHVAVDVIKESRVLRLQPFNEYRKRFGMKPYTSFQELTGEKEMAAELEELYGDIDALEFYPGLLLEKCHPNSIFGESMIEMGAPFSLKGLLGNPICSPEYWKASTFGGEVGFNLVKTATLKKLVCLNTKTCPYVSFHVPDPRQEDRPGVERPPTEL
Experimental: (§1) Inhibitory potency of the compounds against COX-1 and COX-2 enzymes was determined using fluorometric COX-1 and COX-2 inhibitor screening kits (Biovision, Zurich, Switzerland). Experimental protocol was followed as described in the guides of the supplier[47]^,[48]. All of the pipettings in the assay were performed by Biotek Precision robotic system (BioTek Instruments, Inc., Winooski, VT). […] Appropriate two points (T1 and T2) in the linear range of the plot were chosen, and the corresponding fluorescence values (RFU1 and RFU2) were obtained. The slope for all samples, including enzyme control (EC), by dividing the net ΔRFU (RFU2–RFU1) values by the time ΔT (T2–T1) were calculated by using following equation: % Relative inhibition=(Slope of EC-Slope of S/Slope of EC)×100
(§2) This initial in vitro assay was done with two concentrations (10^−3 and 10^−4 M) for all compounds. […] The IC50 value was calculated from the plots of enzyme activity against concentrations by applying regression analyses on GraphPad Prism Version 5 (GraphPad Software, La Jolla, CA).
(§3) Selectivity indexes (SI) were expressed as IC50 (COX-1)/IC50 (COX-2). Selectivity toward COX-2 decreases as the corresponding SI decreases while selectivity toward COX-1 isoform increases as the corresponding SI decreases.

COX-2 = target: T2, COX-2 (Homo sapiens, UniProt P35354); test: fluorometric COX-2 inhibitor screening kit assay; type: biochemical; conditions: 25 °C
T2 construct: purchased Biovision K547-100
T2 sequence (P35354 18-604): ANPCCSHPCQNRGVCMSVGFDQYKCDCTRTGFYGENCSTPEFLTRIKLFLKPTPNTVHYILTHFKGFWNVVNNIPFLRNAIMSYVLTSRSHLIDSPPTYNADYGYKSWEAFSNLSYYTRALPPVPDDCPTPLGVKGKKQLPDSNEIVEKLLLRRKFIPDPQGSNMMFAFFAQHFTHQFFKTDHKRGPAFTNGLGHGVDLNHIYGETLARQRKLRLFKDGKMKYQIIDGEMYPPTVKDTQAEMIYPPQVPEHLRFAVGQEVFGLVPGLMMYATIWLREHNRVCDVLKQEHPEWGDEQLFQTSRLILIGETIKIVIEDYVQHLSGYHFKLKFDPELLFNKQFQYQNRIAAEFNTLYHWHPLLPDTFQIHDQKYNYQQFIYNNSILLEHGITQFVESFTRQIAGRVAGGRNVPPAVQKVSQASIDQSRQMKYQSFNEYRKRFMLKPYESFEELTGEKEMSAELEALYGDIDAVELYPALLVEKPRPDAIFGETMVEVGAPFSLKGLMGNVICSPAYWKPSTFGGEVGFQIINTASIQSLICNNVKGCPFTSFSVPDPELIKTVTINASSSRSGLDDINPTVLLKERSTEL
Experimental: as §1, §2, §3

[1] = system: Enterococcus faecalis (ATCC 29212); test: broth microdilution MIC (CLSI M07-A9), resazurin; type: cell-based; conditions: ATCC29212, 24 h
Experimental: (§4) Microbiological studies were performed according to following guides: CLSI reference […]-A9 broth microdilution method[49] for bacterial strains and EUCAST definitive (EDef 7.1) method[50] for Candida species. Synthesized compounds were tested for their in vitro growth inhibitory activity against Staphylococcus aureus (ATCC 25923), Enterococcus faecalis (ATCC 29212), Listeria monocytogenes (ATCC 1911), Klebsiella pneumoniae (NCTC 9633), Escherichia coli (ATCC 35218), E. coli (ATCC 25922) Candida albicans (ATCC 24433) Candida krusei (ATCC 6258) and Candida parapsilosis (ATCC 22019). Chloramphenicol and ketoconazole were used as control drugs. The cultures were obtained from the Mueller-Hinton broth (Difco) for the bacterial strains after overnight incubation at 37 °C. The yeasts were maintained in Roswell Park Memorial Institute (RPMI) after overnight incubation at 37 °C. […] Testing was carried out in Mueller-Hinton broth and RPMI at pH =7, and the two-fold serial dilutions technique was applied. The last well on the microplates containing only inoculated broth was kept as controls and the last well with no growth of microorganism was recorded to represent the minimum inhibitory concentration (MIC) expressed in μg/mL. For both the antibacterial and antifungal assays, the compounds were dissolved in DMSO. […] The completed plates were incubated for 24 h. At the end of the incubation, resazurin (20 μg/mL) was added into each well and plates were incubated for 2 h. MIC values were determined using a microplate reader at […]. Synthesized compounds (6a-6m) were evaluated for antimicrobial activity against various microorganisms such as Staphylococcus aureus (ATCC 25923), Enterococcus faecalis (ATCC 29212), Listeria monocytogenes (ATCC 1911), Klebsiella pneumoniae (NCTC 9633), Escherichia coli (ATCC 35218), E. coli (ATCC 25922)Candida albicans (ATCC 24433) Candida krusei (ATCC 6258) and Candida parapsilosis (ATCC 22019). […] Chloramphenicol and ketoconazole were used as standard drugs in the activity test. […] Besides, the compounds 6d, 6h, 6l and 6m indicated stronger antibacterial activity than the other compounds in the series.

[2] = system: Escherichia coli (ATCC 25922); test: broth microdilution MIC (CLSI M07-A9), resazurin; type: cell-based; conditions: ATCC25922, 24 h, read-out: MIC Ec-2
Experimental: as §4

[3] = system: Escherichia coli (ATCC 35218); test: broth microdilution MIC (CLSI M07-A9), resazurin; type: cell-based; conditions: ATCC35218, 24 h, read-out: MIC Ec-1
Experimental: as §4

[4] = system: Klebsiella pneumoniae (NCTC 9633); test: broth microdilution MIC (CLSI M07-A9), resazurin; type: cell-based; conditions: 24 h
Experimental: as §4

[5] = system: Listeria monocytogenes (ATCC 1911); test: broth microdilution MIC (CLSI M07-A9), resazurin; type: cell-based; conditions: ATCC1911, 24 h
Experimental: as §4

[6] = system: Staphylococcus aureus (ATCC 25923); test: broth microdilution MIC (CLSI M07-A9), resazurin; type: cell-based; conditions: ATCC25923, 24 h
Experimental: as §4

[7] = system: Candida albicans (ATCC 24433); test: broth dilution MIC (EUCAST EDef 7.1), resazurin; type: cell-based; conditions: ATCC24433, 24 h
Experimental: as §4

[8] = system: Candida krusei (ATCC 6258); test: broth dilution MIC (EUCAST EDef 7.1), resazurin; type: cell-based; conditions: Pichia kudriavzevii, ATCC6258, 24 h
Experimental: as §4

[9] = system: Candida parapsilosis (ATCC 22019); test: broth dilution MIC (EUCAST EDef 7.1), resazurin; type: cell-based; conditions: ATCC22019, 24 h
Experimental: as §4

MTT cytotoxicity test = conditions: mouse
Experimental: NIH/3T3 cells were incubated according to the supplier’s recommendations. NIH/3T3 cells were seeded at 1 × 10^4 cells into each well of 96-well plates. MTT assay was performed as previously described[51]^,[52].
There are a number of requirements to be fulfilled for successful new drug development. […] This assay is based upon the reduction of yellow MTT dye by metabolically active eukaryotic and prokaryotic cells to form the purple formazan product. The assay is generally used to examine cell viability and to estimate cell culture growth[66]^,[67].

SMILES | SI (selectivity index) (COX-1) | IC50 (COX-1) | Selectivity (COX-1) | IC50 (COX-2) | MIC [1] | MIC [2] | MIC [3] | MIC Kp [4] | MIC [5] | MIC [6] | MIC [7] | MIC [8] | MIC [9] | melting point | IC50 (MTT cytotoxicity test)
CC(C(=O)O)c1ccc(CSc2nc3ccccc3s2)cc1 (stereo not shown) [Compound 6f, 2-(4-((Benzo[d]thiazol-2-ylthio)methyl)phenyl)propanoic acid] | 0.54 | 2.36 µM | COX-1 | 4.41 µM | 12.5 µg/mL (≈ 37.9 µM) | 12.5 µg/mL (≈ 37.9 µM) | 6.25 µg/mL (≈ 19 µM) | 12.5 µg/mL (≈ 37.9 µM) | 12.5 µg/mL (≈ 37.9 µM) | 12.5 µg/mL (≈ 37.9 µM) | 100 µg/mL (≈ 304 µM) | 100 µg/mL (≈ 304 µM) | 50 µg/mL (≈ 152 µM) | 128.2 to 130.8 °C | 
CC(C(=O)O)c1ccc(CSc2nc3cc(Cl)ccc3s2)cc1 (stereo not shown) [Compound 6g, 2-(4-(((5-Chlorobenzo[d]thiazol-2-yl)thio)methyl)phenyl)propanoic acid] | 0.58 | 2.46 µM | COX-1 | 4.25 µM | 12.5 µg/mL (≈ 34.4 µM) | 12.5 µg/mL (≈ 34.4 µM) | 6.25 µg/mL (≈ 17.2 µM) | 12.5 µg/mL (≈ 34.4 µM) | 12.5 µg/mL (≈ 34.4 µM) | 12.5 µg/mL (≈ 34.4 µM) | 100 µg/mL (≈ 275 µM) | 100 µg/mL (≈ 275 µM) | 50 µg/mL (≈ 137 µM) | 162.3 to 164.7 °C | 
CC(C(=O)O)c1ccc(CSc2nc3ccccc3[nH]2)cc1 (stereo not shown) [Compound 6i, 2-(4-(((1H-benzo[d]imidazol-2-yl)thio)methyl)phenyl)propanoic acid] | 0.62 | 5.9 µM | COX-1 | 9.56 µM | 12.5 µg/mL (≈ 40 µM) | 12.5 µg/mL (≈ 40 µM) | 6.25 µg/mL (≈ 20 µM) | 6.25 µg/mL (≈ 20 µM) | 12.5 µg/mL (≈ 40 µM) | 12.5 µg/mL (≈ 40 µM) | 100 µg/mL (≈ 320 µM) | 100 µg/mL (≈ 320 µM) | 50 µg/mL (≈ 160 µM) | 208.7 to 210.9 °C | 
Cc1ccc2[nH]c(SCc3ccc(C(C)C(=O)O)cc3)nc2c1 (stereo not shown) [Compound 6j, 2-(4-(((5-Methyl-1H-benzo[d]imidazol-2-yl)thio)methyl)phenyl)propanoic acid] | 0.58 | 4.4 µM | COX-1 | 7.53 µM | 12.5 µg/mL (≈ 38.3 µM) | 12.5 µg/mL (≈ 38.3 µM) | 6.25 µg/mL (≈ 19.1 µM) | 6.25 µg/mL (≈ 19.1 µM) | 12.5 µg/mL (≈ 38.3 µM) | 12.5 µg/mL (≈ 38.3 µM) | 100 µg/mL (≈ 306 µM) | 100 µg/mL (≈ 306 µM) | 50 µg/mL (≈ 153 µM) | 209.1 to 211.6 °C | 
CC(C(=O)O)c1ccc(CSc2nc3cc(Cl)ccc3[nH]2)cc1 (stereo not shown) [Compound 6k, 2-(4-(((5-Chloro-1H-benzo[d]imidazol-2-yl)thio)methyl)phenyl)propanoic acid] | 0.63 | 3.71 µM | COX-1 | 5.91 µM | 12.5 µg/mL (≈ 36 µM) | 12.5 µg/mL (≈ 36 µM) | 6.25 µg/mL (≈ 18 µM) | 6.25 µg/mL (≈ 18 µM) | 12.5 µg/mL (≈ 36 µM) | 12.5 µg/mL (≈ 36 µM) | 50 µg/mL (≈ 144 µM) | 50 µg/mL (≈ 144 µM) | 50 µg/mL (≈ 144 µM) | 208.8 to 211.5 °C | 
CC(C(=O)O)c1ccc(CSc2nc3cc([N+](=O)[O-])ccc3[nH]2)cc1 (stereo not shown) [Compound 6m, 2-(4-(((5-Nitro-1H-benzo[d]imidazol-2-yl)thio)methyl)phenyl)propanoic acid] | 0.52 | 4.48 µM | COX-1 | 8.66 µM | 6.25 µg/mL (≈ 17.5 µM) | 6.25 µg/mL (≈ 17.5 µM) | 6.25 µg/mL (≈ 17.5 µM) | 6.25 µg/mL (≈ 17.5 µM) | 12.5 µg/mL (≈ 35 µM) | 6.25 µg/mL (≈ 17.5 µM) | 50 µg/mL (≈ 140 µM) | 50 µg/mL (≈ 140 µM) | 50 µg/mL (≈ 140 µM) | 176.5 to 178.7 °C | 
CC(C)Cc1ccc(C(C)C(=O)O)cc1 (stereo not shown) [Ibuprofen, reference compound] |  |  |  |  |  |  |  |  |  |  |  |  |  |  | ≥ 1 mM
